One block for each compound: values may come before it.
Tests used:
[1] = system: prostate cancer line (LN CaP); test: Apoptotic effect, TUNEL test; type: cell-based; conditions: LN CaP cells incubated at the IC50 concentration, 8 to 96 hours; early = 8 hours
Description: Study of the pro-apoptotic effects of compounds of the invention is carried out on a prostate cancer line (LN CaP). The cells were incubated for periods ranging from 8 to 96 hours at the IC50 concentration.
The TUNEL test was then carried out according to the method described by Sgonc in Trends Genetics—1994; 10:41.

[2] = system: Eleven cell lines from cancers of different origins and sites (lung, breast, prostate, colon, blood, bladder, skin, ovary, brain); test: In vitro cytotoxicity, MTT test, 96 hours incubation; type: cell-based; conditions: lines to which the stated IC50 range applies
Description: Eleven cell lines from cancers of different origins and sites (lung, breast, prostate, colon, blood, bladder, skin, ovary, brain) are cultured in order to study the various compounds in comparison to the reference substance.
The cells are incubated for 96 hours with various concentrations of compounds of the invention.
The in vitro cytotoxic activity is determined by the MTT [3-(4,5-dimethylthiazol-2-yl)-2,5-diphenyltetrazolium bromide] test as described by Carmichael in Cancer Res.—1987; 47 (4): 936-942.
The activity is expressed in terms of the IC50, that is to say the concentration which inhibits proliferation of the tumour cells by 50%.

lung cancer cells = test: In vitro synergistic effect with anti-cancer agent (MTT test, Chou and Talabay analysis), lung cancer cells; type: cell-based; conditions: 96 hours, five concentrations of compound and of cisplatin (CDDP)
Description: (§1) Three cell lines which are sensitive to three anti-cancer agents are used: breast cancer cells in association with treatment with tamoxifen (TXL), lung cancer cells in association with treatment with cisplatin (CDDP), and colon cancer cells in association with treatment with SN38, a metabolite of CPT-11 (irinotecan).
(§2) The tumour cells are incubated for 96 hours together with five different concentrations of each of the compounds of the invention and five concentrations of each of the anti-cancer agents in association.
(§3) The in vitro cytotoxic activity is determined by the MTT test described in Example 24. Analysis of the data is carried out according to the method of Chou and Talabay, published in Trends Pharmaceutical Sci.—1983; 4:450.

breast cancer cells = test: In vitro synergistic effect with anti-cancer agent (MTT test, Chou and Talabay analysis), breast cancer cells; type: cell-based; conditions: 96 hours, five concentrations of compound and of anti-cancer agent; method names tamoxifen (TXL) on breast cancer cells
Description: as §1, §2, §3

melting point: 295 to 300 °C
SMILES: O=c1cc(-c2cn(-c3ccccc3)c3ccccc3c2=O)oc2cc(O)ccc12 [Example 2, 3-(7-Hydroxy-4-oxo-4H-1-benzopyran-2-yl)-1-phenyl-1H-quinolin-4-one]

melting point: > 300 °C
SMILES: O=c1c(-c2cc(=O)c3c(O)cccc3o2)cn(-c2ccccc2)c2ccccc12 [Example 6, 3-(5-Hydroxy-4-oxo-4H-1-benzopyran-2-yl)-1-phenyl-1H-quinolin-4-one]
apoptosis (TUNEL test) [1]: very high apoptosis

melting point: 295 to 296 °C
SMILES: COc1cc(O)c2c(=O)cc(-c3cn(-c4ccccc4)c4ccccc4c3=O)oc2c1 [Example 7, 3-(5-Hydroxy-7-methoxy-4-oxo-4H-1-benzopyran-2-yl)-1-phenyl-1H-quinolin-4-one]

melting point: 327 to 328 °C
SMILES: O=c1cc(-c2cn(-c3ccccc3)c3ccccc3c2=O)oc2ccccc12 [Example 8, 3-(4-Oxo-4H-1-benzopyran-2-yl)-1-phenyl-1H-quinolin-4-one]

SMILES: COc1cc(OC)c2c(=O)cc(-c3cn(-c4ccccc4)c4ccccc4c3=O)oc2c1C1=CCN(C)CC1 [Example 9, 3-[5,7-Dimethoxy-8-(1-methyl-1,2,5,6-tetrahydropyridin-4-yl)-4-oxo-4H-1-benzopyran-2-yl]-1-phenyl-1H-1,4-dihydroquinolin-4-one]
number of the 11 lines tested with respect to which the compound has cytotoxic activity [2]: 8 of the 11

SMILES: CN1CC=C(c2c(O)cc(O)c3c(=O)cc(-c4cn(-c5ccccc5)c5ccccc5c4=O)oc23)CC1 [Example 14, 3-[5,7-Dihydroxy-8-(1-methyl-1,2,5,6-tetrahydropyridin-4-yl)4-oxo-4H-1-benzopyran-2-yl]-1-phenyl-1H-1,4-dihydroquinolin-4-one]
synergistic effect with cisplatin (lung cancer cells): synergistic effect | synergistic effect with paclitaxel (breast cancer cells): synergistic effect | number of the 11 lines tested with respect to which the compound has cytotoxic activity [2]: 5 of the 11

SMILES: O=c1c(-c2cc(=O)c3c(O)cc(O)c(C4=CCN(Cc5ccccc5)CC4)c3o2)cn(-c2ccccc2)c2ccccc12 [Example 16, 3-[5,7-Dihydroxy-8-(1-benzyl-1,2,5,6-tetrahydropyridin-4-yl)-4-oxo-4H-1-benzopyran-2-yl]-1-phenyl-1H-1,4-dihydroquinolin-4-one]
synergistic effect with cisplatin (lung cancer cells): synergistic effect | synergistic effect with paclitaxel (breast cancer cells): synergistic effect

Reference: US7339061B2, “3-(4-oxo-4H-chromen-2-yl)-(1H)-quinolin-4-one derivatives, method for preparing same and pharmaceutical compositions containing same” (Les Laboratoires Servier, priority 2002, dated 2008)
